Assay results as given in PubChem BioAssay (NCI).
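96-well plates; 48 h exposure; 5 concentrations. Endpoints by linear interpolation between flanking doses. Not reached: highest tested concentration assigned. TGI is the concentration that stops growth completely.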

How the values were obtained:
Assay in all cases: NCI tumour cell line growth inhibition, 48 h
HL-60(TB) leukemia = system: HL-60(TB) leukemia
NCI-H226 lung = system: NCI-H226 lung
BT-549 breast = system: BT-549 breast
SR leukemia = system: SR leukemia
OVCAR-4 ovarian = system: OVCAR-4 ovarian
KM12 colon = system: KM12 colon
M14 melanoma = system: M14 melanoma
ACHN renal = system: ACHN renal
SF-539 CNS = system: SF-539 CNS
MDA-N = system: MDA-N
SF-295 CNS = system: SF-295 CNS
786-0 renal = system: 786-0 renal
CCRF-CEM leukemia = system: CCRF-CEM leukemia
NCI-H23 lung = system: NCI-H23 lung
TK-10 renal = system: TK-10 renal
MDA-MB-435 = system: MDA-MB-435
NCI/ADR-RES ovarian = system: NCI/ADR-RES ovarian
K-562 leukemia = system: K-562 leukemia
NCI-H460 lung = system: NCI-H460 lung

Row | SMILES | TGI (HL-60(TB) leukemia) [µM] | TGI (NCI-H226 lung) [µM] | TGI (BT-549 breast) [µM] | TGI (SR leukemia) [µM] | TGI (OVCAR-4 ovarian) [µM] | TGI (KM12 colon) [µM] | TGI (M14 melanoma) [µM] | TGI (ACHN renal) [µM] | TGI (SF-539 CNS) [µM] | TGI (MDA-N) [µM] | TGI (SF-295 CNS) [µM] | TGI (786-0 renal) [µM] | TGI (CCRF-CEM leukemia) [µM] | TGI (NCI-H23 lung) [µM] | TGI (TK-10 renal) [µM] | TGI (MDA-MB-435) [µM] | TGI (NCI/ADR-RES ovarian) [µM] | TGI (K-562 leukemia) [µM] | TGI (NCI-H460 lung) [µM]
1 | C[N+]1(C)C2CC(OC(=O)C(CO)c3ccccc3)CC1C1OC12 (stereo not drawn) | > 100 | > 100 | > 100 | > 100 | > 100 | > 100 | > 100 | > 100 | > 100 | > 100 | > 100 | > 100 | > 100 | > 100 | > 100 | > 100 | > 100 | > 100 | –
2 | COc1ccc(N2C(=O)c3cc([N+](=O)[O-])cnc3S2(=O)=O)cc1 | > 100 | > 100 | > 100 | > 100 | > 100 | > 100 | – | > 100 | – | > 100 | > 100 | > 100 | > 100 | > 100 | > 100 | > 100 | > 100 | > 100 | > 100
3 | O=C(c1ccc2ccccc2c1)C1(I)S(=O)(=O)OCCOS1(=O)=O | > 100 | – | > 100 | > 100 | > 100 | > 100 | > 100 | > 100 | – | > 100 | 0.0298 | > 100 | > 100 | > 100 | > 100 | > 100 | > 100 | > 100 | > 100
4 | N=c1sc2ccccc2n1CCS (tested in a mixture with another compound) | 66.9 | 35.3 | 48.4 | – | 46.9 | 35.5 | 30.6 | 31.7 | 19.3 | > 100 | 42 | 35.8 | > 100 | 32.3 | 48.6 | 36.3 | 45.3 | 44.7 | 27.5
5 | Brc1ccc(C2=NCSC(c3ccc(Br)cc3)=N2)cc1 | 34.8 | > 100 | > 100 | 47.4 | > 100 | > 100 | > 100 | > 100 | 99.2 | 54.7 | > 100 | 40.4 | – | > 100 | 53.8 | > 100 | > 100 | > 100 | 53.8
6 | O=C(CCC(=O)c1ccsc1)c1ccsc1 | > 100 | > 100 | > 100 | > 100 | > 100 | > 100 | > 100 | > 100 | > 100 | > 100 | > 100 | > 100 | – | > 100 | > 100 | > 100 | > 100 | – | > 100
7 | COc1cc2nc3n(c2cc1OC)C(O)c1c(Cl)nc(SC)nc1S3 (stereo not drawn) | – | 28 | 9.37 | > 100 | > 39 | > 100 | 21.8 | 42.2 | 5.22 | 24 | > 94.5 | 7.85 | 3.91 | 18.3 | > 74 | > 64.3 | 18.7 | > 100 | 19.6
